Blank lines part the entries; values can stand above or below the compound they belong to.
Columns and labels:
[1] = test system: CXCR4; details: previous observations (Gao, 2018); cited from earlier work
[2] = test system: CR heteromerization partners of α1B/D-ARs (CCR1, CCR2, CXCR4); assay: Chemotaxis assay, THP-1 cells, CR heteromerization partners of α1B/D-ARs taken together; format: cell-based, human; details: FIG. 17D-17F
Method: (§1) Cell migration was measured employing the Neuroprobe (Gaithersburg, MD, USA) ChemoTx® Disposable Chemotaxis System. A 96-well Boyden-chamber (30 μL/well, 8 μm pores, 1×10^5 pores/cm^2 pore density) was selected for all chemotaxis experiments. Bottom wells of the Boyden-chamber were loaded with 30 μL of test substances at various concentrations. Top wells of the membrane were loaded with 25 μL of THP-1 cells, THP-1_ADRA1B^KO, wild type THP-1 cells after clonal expansion (=control for THP-1_ADRA1B^KO) or freshly isolated monocytes (200 cells/μL). THP-1 cells were suspended in depleted RPMI1640 (0.5% HyClone™ fetal bovine serum, Sigma); Freshly isolated monocytes were suspended in RPMI1640 (0.5% human platelet poor plasma, Sigma). After 3 hours, transmigrated cells were counted utilizing the Cytation 1 plate reader (BioTek) by direct imaging in high contrast bright field (4×) and post-imaging particle analyses with Gen5 (v3.05) Imaging & Microscopy Software (BioTek). The chemotactic index (CI) was calculated as the ratio of cells that transmigrated in the presence versus the absence of the test solutions.

[3] = test system: CXCR1; assay: Chemotaxis assay, THP-1 cells toward CXCL8 (CXCR1-mediated); format: cell-based, human; details: CXCL8 10 nM, FIG. 13B
Method: as §1

[4] = test system: CXCR4; assay: Chemotaxis assay, THP-1 cells toward CXCL12 (CXCR4-mediated); format: cell-based, human; details: CXCL12 100 nM, mean±SE, read-out: IC50 for inhibition of CXCR4-mediated chemotaxis
Method: as §1

[5] = target: CCR2 (Homo sapiens, UniProt P41597); assay: Chemotaxis assay, THP-1 cells toward CCL2 (CCR2-mediated); format: cell-based; design: host or cells: THP-1; details: CCL2 10 nM, mean±SE, read-out: IC50 for inhibition of CCR2-mediated chemotaxis
Method: as §1

[6] = test system: CCR1; assay: Chemotaxis assay, THP-1 cells toward CCL23 (CCR1-mediated); format: cell-based, human; details: CCL23 10 nM, mean±SE, read-out: IC50 for inhibition of CCR1-mediated chemotaxis
Method: as §1

[7] = test system: AVPR1A heteromerization partners CCR2, CCR8 and CXCR4; assay: Chemotaxis assay, THP-1 cells, AVPR1A heteromerization partners CCR2, CCR8 and CXCR4; format: cell-based; details: Homo sapiens, FIG. 13A, 13C, read-out: IC50, inhibition of chemotaxis mediated via CCR2, CCR8 and CXCR4

CCR2, sequence (P41597 whole entry): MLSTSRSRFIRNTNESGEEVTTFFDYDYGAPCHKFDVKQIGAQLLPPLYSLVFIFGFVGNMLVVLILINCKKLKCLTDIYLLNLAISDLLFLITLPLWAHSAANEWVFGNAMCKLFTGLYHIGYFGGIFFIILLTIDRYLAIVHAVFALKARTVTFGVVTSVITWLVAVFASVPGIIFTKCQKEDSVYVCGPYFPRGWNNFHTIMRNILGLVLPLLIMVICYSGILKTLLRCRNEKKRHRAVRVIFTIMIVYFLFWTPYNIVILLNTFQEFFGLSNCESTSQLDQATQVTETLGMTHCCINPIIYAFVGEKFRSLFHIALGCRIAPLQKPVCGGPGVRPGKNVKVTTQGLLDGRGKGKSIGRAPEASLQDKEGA

SMILES: COc1cc2nc(N3CCN(C(=O)c4ccco4)[C@H]4CCCC[C@H]43)nc(N)c2cc1OC (racemic) [cyclazosin]
CXCR4-mediated chemotaxis of primary human vascular smooth muscle cells [1]: inhibit

SMILES: COc1ccccc1N1CCN(CCCNc2c(C)c(=O)n(C)c(=O)n2C)CC1 [5-Methylurapidil]
CR-mediated chemotaxis (CCR1, CCR2 and CXCR4) [2]: did not affect

SMILES: NC(=O)CC[C@@H]1NC(=O)[C@H](Cc2ccccc2)NC(=O)[C@H](Cc2ccc(O)cc2)NC(=O)[C@@H](N)CSSC[C@@H](C(=O)N2CCC[C@H]2C(=O)N[C@@H](CCCN=C(N)N)C(=O)NCC(N)=O)NC(=O)[C@H](CC(N)=O)NC1=O [AVP, arginine vasopressin]
chemotaxis mediated by CXCR1 [3]: did not affect

IC50 [4]: 2.87 ± 0.6 nM | IC50 [5]: 0.93 ± 0.61 nM | IC50 [6]: 10.5 ± 0.91 nM
SMILES: COc1ccccc1N1CCN(CCN2C(=O)CC3(CCCC3)CC2=O)CC1 [BMY7378]

IC50 [7]: 0.037 to 0.218 nM
SMILES: Cc1nc2c([nH]1)-c1ccccc1N(C(=O)c1ccc(NC(=O)c3ccccc3-c3ccccc3)cc1)CC2 [Conivaptan]

Reference: patent publication US20250213647A1, “CHEMOKINE RECEPTORS AND ALPHA1 ADRENERGIC RECEPTORS/VASOPRESSIN RECEPTORS 1A HETEROMERS AS DRUG TARGETS FOR DISEASE” (UNIVERSITY OF SOUTH FLORIDA, priority 2022, published 2025)
